The values below come from ChEMBL document CHEMBL1649341, “Citrusosides A-D and furanocoumarins with cholinesterase inhibitory activity from the fruit peels of Citrus hystrix” (J Nat Prod, 2010).

Molecules are shown by their SMILES. Calls of active or inactive are those of the source. No cut-off for these calls is given here.

The target of assay [1] is Cholinesterase (Equus caballus) (UniProt P81908). The assay is described as follows: Inhibition of horse serum BChE at 7.2 mM after 2 mins by Ellman's reaction. Background: DTNB colorimetry detects thiols as they appear.
Assay [2] has the same target. The experiment in a line: Inhibition of horse serum BChE at 65.1 uM after 2 mins by Ellman's reaction.
Assay [3] deals with Cholinesterase (Equus caballus, UniProt P81908). The experiment in a line: Inhibition of horse serum BChE after 2 mins by Ellman's reaction.
The target in assay [4] is Cholinesterase (Equus caballus) (UniProt P81908). The experiment in a line: Inhibition of horse serum BChE at 14.8 mM after 2 mins by Ellman's reaction.

Sequence of Cholinesterase (P81908 whole entry): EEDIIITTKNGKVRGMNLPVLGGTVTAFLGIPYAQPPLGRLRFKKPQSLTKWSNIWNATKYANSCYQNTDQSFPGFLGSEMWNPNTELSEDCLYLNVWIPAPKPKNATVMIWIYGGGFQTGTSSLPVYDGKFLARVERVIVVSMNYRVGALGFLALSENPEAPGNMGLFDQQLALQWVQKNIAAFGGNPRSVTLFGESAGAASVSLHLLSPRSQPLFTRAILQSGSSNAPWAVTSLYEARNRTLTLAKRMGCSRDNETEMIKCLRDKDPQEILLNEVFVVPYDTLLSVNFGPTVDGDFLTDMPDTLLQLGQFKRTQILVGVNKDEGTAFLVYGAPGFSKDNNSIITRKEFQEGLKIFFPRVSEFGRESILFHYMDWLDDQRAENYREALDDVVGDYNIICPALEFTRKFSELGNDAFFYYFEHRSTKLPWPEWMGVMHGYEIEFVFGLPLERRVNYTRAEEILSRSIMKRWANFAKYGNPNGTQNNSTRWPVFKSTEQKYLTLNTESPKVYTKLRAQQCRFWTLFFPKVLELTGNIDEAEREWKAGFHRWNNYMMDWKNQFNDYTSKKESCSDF
Sequence of Cholinesterase (Equus caballus) (P81908 whole entry): as above

The inhibition is the percentage by which the read-out fell short of the control. In the case of `CC(C)O[C@@H]1O[C@H](CO)[C@@H](O)[C@H](OC(=O)CC(C)(O)CC(=O)O[C@H](COc2c3ccoc3cc3oc(=O)ccc23)C(C)(C)O)[C@H]1O` (stereo partly drawn), the inhibition entry in assay [1] is “inactive”.

`CC(C)(O)[C@H](O)COc1c2ccoc2cc2oc(=O)ccc12` had an inhibition in assay [2] of 24.6%.

For orientation: IC50 means the concentration needed to halve the response being measured. Read a low IC50 as inhibition by little substance. Consider `C/C(=C\COc1c2ccoc2cc2oc(=O)ccc12)CC[C@@H](OC(=O)CC(C)(O)CC(=O)OC[C@H]1O[C@@H](OC(C)C)[C@H](O)[C@@H](O)[C@@H]1O)C(C)(C)O` (stereo partly drawn) [CITRUSOSIDE B], for which the midpoint of inhibition in assay [3], the IC50, lay at 339 µM.

`CC(C)=CCOc1c2ccoc2cc2oc(=O)ccc12` [ISOIMPERATORIN] yielded an IC50 in assay [3] of 23.1 µM.

In the case of `C/C(=C\COc1c2ccoc2cc2oc(=O)ccc12)CC[C@@H](O)C(C)(C)O`, the midpoint of inhibition in assay [3], the IC50, lay at 15.4 µM. Against the preceding compound, the IC50 is about 1.5-fold lower.

Turning to `CC(C)=CCC/C(C)=C/COc1c2ccoc2cc2oc(=O)ccc12`, the inhibition result in assay [4] was “inactive”.

In the case of `COC(C)(C)[C@H](O)CC/C(C)=C/COc1c2ccoc2cc2oc(=O)ccc12`, in assay [3], inhibition was half-maximal at 11.2 µM (IC50).

Consider `CC(C)=CCC[C@@H](C)C/C=C/C(=O)OC[C@H]1O[C@@H](OC(C)C)[C@H](O)[C@@H](O)[C@@H]1O` [CITRUSOSIDE A], for which, in assay [3], the IC50 was determined as 376 µM.
